Experimental data from patent publication US20250281453A1, “COMBINATION THERAPIES COMPRISING QTX125” (QUIMATRYX, S.L., priority 2022, published 2025).

Experiments:
Test in all cases: QTX125-containing combination therapy, hexosaminidase cell viability
Assay type in all cases: cell-based
[1] = tested on: SK-OV-3 ovarian cancer cells; conditions: for EC50: Homo sapiens, SK-OV-3, SK-Ov-3; for combination index (C.I): SK-Ov-3
Description: (§1) To assess the oncolytic efficacy of QTX125-containing combination therapies in vitro, colonic, pancreatic, hepatic and ovarian tumour cells were administered sorafenib, gemcitabine or bortezomib at EC25, EC50 and EC75 doses. QTX125 was co-administered in order to produce a dose response curve.
(§2) To prepare cells for viability assays, cells were transferred into 96 well tissue culture plates (Cultek), and resuspended in 100 µL at the following densities: 10,000 cells/well (Hep-G2 and MiaPaCa-2), 5000 cells/well (Panc-1 and SK-OV-3) or 3000 cells/well (HCT-116). Following 24 hours of incubation, media was removed and replaced with 100 µL media spiked with QTX125 and the test chemotherapeutic agents. Stock solutions for the agents used in this study are shown below in Table 1. Cells were incubated for a further 72 hours before cell viability was assessed using both ALAMAR® and hexosaminidase assays.
(§3) For the hexosaminidase assay, media containing QTX125 and the test chemotherapeutic agents was removed, and cells were washed once with PBS. 60 μL of substrate solution (containing: 7.5 mM p-nitrophenol-N-acetyl-beta-D-glucosamide [Sigma N-9376], 0.1 M sodium citrate, pH 5.0 and 0.25% Triton X-100) was added to each well and cells were incubated at 37° C. for at least 1 hour. Incubating cells in this manner causes the substrate solution to become bright yellow, at which point 90 μL of developer solution (containing 50 mM Glycine pH 10.4 and 5 mM EDTA) was added to each well. Absorbance at 410 nm was recorded using a plate reader.
(§4) Control values were normalised to 100% and percentage (%) viability was calculated. Data were used to plot log dose-response curves using a sigmoid dose-response (variable slope) equation. EC50 values were obtained using Equation 1, where ‘X’ is the logarithmic concentration; ‘Y’ is the response output and it is assumed that Y starts at bottom of the graph and reaches the top with an overall sigmoid shape.
(§5) Cls were obtained using Equation 2, where (Dm) 1 is the ECx concentration of QTX125 and (D) 1 is the ECx concentration of QTX125 in the presence of sorafenib, gemcitabine or bortezomib.
(§6) In order to assess the oncolytic efficacy of QTX125-containing combination therapies, monotherapy EC25, EC50 and EC75 doses for sorafenib, gemcitabine and bortezomib were calculated (as per Experiment 3) and administered to wells at these fixed concentrations. QTX125 was co-administered at a range of concentrations, in order to plot a dose-response curve such that the EC50 dose of QTX125 could be calculated in the presence of sorafenib/gemcitabine/bortezomib. QTX125 was administered to cells at a starting high-dose, and a 1:1 dilution was completed thereafter. In this part of the study, only the hexosaminidase assay was employed to assess cell viability following treatment with QTX125-containing combination therapies.
(§7) It should be noted that it was not possible to determine the appropriate concentrations for gemcitabine in all cell lines tested. In cells resistant to gemcitabine, nominal concentrations were used in place of EC25, EC50 and EC75 doses (e.g., nominal doses of 1, 10 and 100 µM were used in Panc-1 and Hep-G2 cells).

[2] = tested on: Panc-1 pancreatic cancer cells; conditions: for EC50: Homo sapiens, PANC-1, Panc-1; for combination index (C.I): Panc-1
Description: as §1, §2, §3, §4, §5, §6, §7

[3] = tested on: Hep-G2 hepatic cancer cells; conditions: for combination index (C.I): Hep-G2; for EC50: Homo sapiens, HepG2, Hep-G2
Description: as §1, §2, §3, §4, §5, §6, §7

[4] = tested on: MiaPaCa-2 pancreatic cancer cells; conditions: for EC50: Homo sapiens, MIA PaCa-2, MiaPaCa-2; for combination index (C.I.): MiaPaCa-2
Description: as §1, §2, §3, §4, §5, §6, §7

[5] = + bortezomib at EC25 dose (0.006 μM)
[6] = + bortezomib at EC50 dose (0.007 μM)
[7] = + bortezomib at EC75 dose (0.012 μM)
[8] = + gemcitabine at EC25 dose (0.1 μM)
[9] = + gemcitabine at EC50 dose (0.25 μM)
[10] = + gemcitabine at EC75 dose (0.5 μM)
[11] = + sorafenib at EC25 dose (9.1 μM)
[12] = + sorafenib at EC50 dose (12.7 μM)
[13] = + sorafenib at EC75 dose (21.6 μM)
[14] = + bortezomib at EC25 dose (0.007 μM)
[15] = + bortezomib at EC50 dose (0.009 μM)
[16] = + bortezomib at EC75 dose (0.015 μM)
[17] = + gemcitabine at EC25, nominal dose 1 μM
[18] = + gemcitabine at EC50, nominal dose 10 μM
[19] = + gemcitabine at EC75, nominal dose 100 μM
[20] = + sorafenib at EC25 dose (4.1 μM)
[21] = + sorafenib at EC50 dose (7.4 μM)
[22] = + sorafenib at EC75 dose (15 μM)
[23] = + bortezomib at EC25 dose (0.014 μM)
[24] = + bortezomib at EC50 dose (0.016 μM)
[25] = + bortezomib at EC75 dose (0.026 μM)
[26] = + sorafenib at EC25 dose (0.9 μM)
[27] = + sorafenib at EC50 dose (2.5 μM)
[28] = + sorafenib at EC75 dose (6.4 μM)
[29] = + bortezomib at EC75 dose (0.014 μM)
[30] = + gemcitabine at EC25 dose (0.01 μM)
[31] = + gemcitabine at EC50 dose (0.1 μM)
[32] = + gemcitabine at EC75 dose (1 μM)
[33] = + sorafenib at EC25 dose (4.2 μM)
[34] = + sorafenib at EC50 dose (6.8 μM)
[35] = + sorafenib at EC75 dose (10.3 μM)

`O=C(NO)c1ccc(CNC(=O)c2[nH]c(-c3ccc(O)cc3)cc2-c2ccoc2)cc1` [QTX125, 3-(3-Furyl)-N-{4-[(hydroxyamino)carbonyl]benzyl}-5-(4-hydroxyphenyl)-1 Hpyrrole-2-carboxamide] showed an EC50 [1, 5] of 532 nM, an EC50 [1, 6] of 580 nM and an EC50 [1, 7] of 262 nM. For the same compound, the EC50 [1, 8] was 171 nM, the EC50 [1, 9] was 303 nM and the EC50 [1, 10] was 139 nM. The EC50 [1, 11] was 389 nM, the EC50 [1, 12] was 657 nM and the EC50 [1, 13] was 406 nM. The EC50 ([1]; no second agent (control of Table 5.4.1)) was 623 nM, the EC50 ([1]; no second agent (control of Table 5.4.2)) was 282 nM and the EC50 ([1]; no second agent (control of Table 5.4.3)) was 633 nM. The “combination index (C.I)” value [1, 5] was 0.8 arbitrary units, the “combination index (C.I)” value [1, 6] was 0.9 arbitrary units and the “combination index (C.I)” value [1, 7] was 0.4 arbitrary units. The “combination index (C.I)” value [1, 8] was 0.6 arbitrary units, the “combination index (C.I)” value [1, 9] was 1.1 arbitrary units and the “combination index (C.I)” value [1, 10] was 0.5 arbitrary units. For the same compound, the “combination index (C.I)” value [1, 11] was 0.6 arbitrary units, the “combination index (C.I)” value [1, 12] was 1.1 arbitrary units and the “combination index (C.I)” value [1, 13] was 0.7 arbitrary units. For the same compound, the EC50 [2, 14] was 5030 nM, the EC50 [2, 15] was 5480 nM and the EC50 [2, 16] was 1460 nM. The EC50 [2, 17] was 4110 nM, the EC50 [2, 18] was 2470 nM and the EC50 [2, 19] was 1940 nM. The EC50 [2, 20] was 13700 nM, the EC50 [2, 21] was 14300 nM and the EC50 [2, 22] was 2980 nM. The EC50 ([2]; no second agent (control of Table 5.5.1)) was 10200 nM, the EC50 ([2]; no second agent (control of Table 5.5.2)) was 14700 nM and the EC50 ([2]; no second agent (control of Table 5.5.3)) was 18200 nM. The “combination index (C.I)” value [2, 14] was 0.3 arbitrary units, the “combination index (C.I)” value [2, 15] was 0.3 arbitrary units and the “combination index (C.I)” value [2, 16] was 0.1 arbitrary units. The “combination index (C.I)” value [2, 17] was 0.3 arbitrary units, the “combination index (C.I)” value [2, 18] was 0.2 arbitrary units and the “combination index (C.I)” value [2, 19] was 0.1 arbitrary units. For the same compound, the “combination index (C.I)” value [2, 20] was 1.3 arbitrary units, the “combination index (C.I)” value [2, 21] was 1.4 arbitrary units and the “combination index (C.I)” value [2, 22] was 0.3 arbitrary units. The “combination index (C.I)” value [3, 23] was 0.4 arbitrary units, the “combination index (C.I)” value [3, 24] was 0.2 arbitrary units and the “combination index (C.I)” value [3, 25] was 0.2 arbitrary units. The “combination index (C.I)” value [3, 17] was 0.6 arbitrary units, the “combination index (C.I)” value [3, 18] was 0.2 arbitrary units and the “combination index (C.I)” value [3, 19] was 0.05 arbitrary units. The “combination index (C.I)” value [3, 26] was 0.5 arbitrary units, the “combination index (C.I)” value [3, 27] was 0.4 arbitrary units and the “combination index (C.I)” value [3, 28] was 0.5 arbitrary units. It also gave an EC50 [3, 23] of 237 nM, an EC50 [3, 24] of 128 nM and an EC50 [3, 25] of 91 nM. The EC50 [3, 17] was 744 nM, the EC50 [3, 18] was 198 nM and the EC50 [3, 19] was 56.1 nM. The EC50 [3, 26] was 87.9 nM, the EC50 [3, 27] was 74.9 nM and the EC50 [3, 28] was 87.2 nM. For the same compound, the EC50 ([3]; no second agent (control of Table 5.3.1)) was 189 nM, the EC50 ([3]; no second agent (control of Table 5.3.2)) was 1200 nM and the EC50 ([3]; no second agent (control of Table 5.3.3)) was 544 nM. The EC50 [4, 14] was 239 nM, the EC50 [4, 15] was 239 nM and the EC50 [4, 29] was 246 nM. It also gave an EC50 [4, 30] of 133 nM, an EC50 [4, 31] of 112 nM and an EC50 [4, 32] of 45.6 nM. For the same compound, the EC50 [4, 33] was 258 nM, the EC50 [4, 34] was 279 nM and the EC50 [4, 35] was 260 nM. It also gave an EC50 ([4]; no second agent (control of Table 5.2.1)) of 214 nM, an EC50 ([4]; no second agent (control of Table 5.2.2)) of 146 nM and an EC50 ([4]; no second agent (control of Table 5.2.3)) of 230 nM. For the same compound, the “combination index (C.I.)” value [4, 14] was 1.0 arbitrary units, the “combination index (C.I.)” value [4, 15] was 1.0 arbitrary units and the “combination index (C.I.)” value [4, 29] was 1.1 arbitrary units. The “combination index (C.I.)” value [4, 30] was 0.9 arbitrary units, the “combination index (C.I.)” value [4, 31] was 0.8 arbitrary units and the “combination index (C.I.)” value [4, 32] was 0.3 arbitrary units. For the same compound, the “combination index (C.I.)” value [4, 33] was 1.2 arbitrary units, the “combination index (C.I.)” value [4, 34] was 1.3 arbitrary units and the “combination index (C.I.)” value [4, 35] was 1.2 arbitrary units.
